Assays:
Assay type in all cases: in vivo
[1] = test system: pigweed (Amaranthus retroflexus); assay: Test A postemergence, pigweed; settings: visual injury, 0 to 100 scale (0 no effect, 100 complete control), approximately 10 days
In short: (§1)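 Greenhouse assay; ~10 d; visual injury vs untreated control, scored 0 = no effect through 100 = complete control. Post-emergent seedlings at one–two leaves; pre-emergent seeds in loam/sand given a directed soil spray.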

[2] = test system: barnyardgrass (Echinochloa crus-galli); assay: Test A preemergence, barnyardgrass; settings: 0 to 100 scale (0 no effect, 100 complete control)
In short: as §1

[3] = test system: pigweed (Amaranthus retroflexus); assay: Test A preemergence, pigweed; settings: 0 to 100 scale (0 no effect, 100 complete control)
In short: as §1

[4] = test system: ragweed (common ragweed, Ambrosia elatior); assay: Test A postemergence, ragweed; settings: visual injury, 0 to 100 scale (0 no effect, 100 complete control), approximately 10 days
In short: as §1

[5] = test system: ducksalad (Heteranthera limosa); assay: Test B flooded paddy test, ducksalad; settings: 500 g ai/ha, applied to paddy water, visual rating after 13 to 15 days, scale 0 (no effect) to 100 (complete control)
In short: (§2)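 Pots were flooded to 3 cm above the soil surface at treatment, compound applied directly to the paddy water, and that depth held throughout. Plants were kept in a greenhouse for 13 to 15 days, then visually rated against untreated controls.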

[6] = test system: galium (catchweed bedstraw, Galium aparine); assay: Test A postemergence, galium; settings: visual injury, 0 to 100 scale (0 no effect, 100 complete control), approximately 10 days
In short: as §1

kochia (Kochia scoparia) [7] = assay: Test A preemergence, kochia; settings: 0 to 100 scale (0 no effect, 100 complete control)
In short: as §1

kochia (Kochia scoparia) [8] = assay: Test A postemergence, kochia; settings: visual injury, 0 to 100 scale (0 no effect, 100 complete control), approximately 10 days
In short: as §1

[9] = test system: ryegrass, Italian (Lolium multiflorum); assay: Test A postemergence, Italian ryegrass; settings: visual injury, 0 to 100 scale (0 no effect, 100 complete control), approximately 10 days
In short: as §1

[10] = test system: barnyardgrass (Echinochloa crus-galli); assay: Test B flooded paddy test, barnyardgrass; settings: 500 g ai/ha, applied to paddy water, visual rating after 13 to 15 days, scale 0 (no effect) to 100 (complete control)
In short: as §2

rice (Oryza sativa) = assay: Test B flooded paddy test, rice; settings: 500 g ai/ha, applied to paddy water, visual rating after 13 to 15 days, scale 0 (no effect) to 100 (complete control)
In short: as §2

[11] = test system: blackgrass (Alopecurus myosuroides); assay: Test A postemergence, blackgrass; settings: visual injury, 0 to 100 scale (0 no effect, 100 complete control), approximately 10 days
In short: as §1

[12] = test system: ryegrass, Italian (Lolium multiflorum); assay: Test A preemergence, Italian ryegrass; settings: 0 to 100 scale (0 no effect, 100 complete control)
In short: as §1

[13] = test system: wheat (Triticum aestivum); assay: Test A postemergence, wheat; settings: visual injury, 0 to 100 scale (0 no effect, 100 complete control), approximately 10 days
In short: as §1

[14] = test system: sedge, umbrella (small-flower umbrella sedge, Cyperus difformis); assay: Test B flooded paddy test, umbrella sedge; settings: 500 g ai/ha, applied to paddy water, visual rating after 13 to 15 days, scale 0 (no effect) to 100 (complete control)
In short: as §2

[15] = test system: ragweed (common ragweed, Ambrosia elatior); assay: Test A preemergence, ragweed; settings: 0 to 100 scale (0 no effect, 100 complete control)
In short: as §1

[16] = test system: foxtail, giant (Setaria faberii); assay: Test A preemergence, giant foxtail; settings: 0 to 100 scale (0 no effect, 100 complete control)
In short: as §1

[17] = test system: foxtail, giant (Setaria faberii); assay: Test A postemergence, giant foxtail; settings: visual injury, 0 to 100 scale (0 no effect, 100 complete control), approximately 10 days
In short: as §1

corn (Zea mays) = assay: Test A postemergence, corn; settings: visual injury, 0 to 100 scale (0 no effect, 100 complete control), approximately 10 days
In short: as §1

[18] = test system: barnyardgrass (Echinochloa crus-galli); assay: Test A postemergence, barnyardgrass; settings: visual injury, 0 to 100 scale (0 no effect, 100 complete control), approximately 10 days
In short: as §1

O=C1NCC(c2cccc(OCc3ccccc3)c2)C1C(=O)Nc1ccc(F)cc1F (stereo not drawn) [Compound 64]
Plant response rating, Pigweed ([1]; 125 g ai/ha): 0 | Plant response rating, Pigweed ([1]; 500 g ai/ha): 0 | Plant response rating, Barnyardgrass ([2]; 125 g ai/ha): 0 | Plant response rating, Barnyardgrass ([2]; 500 g ai/ha): 0 | Plant response rating, Pigweed ([3]; 125 g ai/ha): 0 | Plant response rating, Pigweed ([3]; 500 g ai/ha): 0 | Plant response rating, Ragweed ([4]; 125 g ai/ha): 0 | Plant response rating, Ragweed ([4]; 500 g ai/ha): 0 | Plant response rating, Ducksalad (Flood) [5]: 35 | Plant response rating, Galium ([6]; 125 g ai/ha): 0 | Plant response rating, Galium ([6]; 500 g ai/ha): 0 | Plant response rating, Kochia (kochia (Kochia scoparia) [7]; 125 g ai/ha): 0 | Plant response rating, Kochia (kochia (Kochia scoparia) [7]; 500 g ai/ha): 0 | Plant response rating, Kochia (kochia (Kochia scoparia) [8]; 125 g ai/ha): 0 | Plant response rating, Kochia (kochia (Kochia scoparia) [8]; 500 g ai/ha): 0 | Plant response rating, Ryegrass, Italian ([9]; 125 g ai/ha): 0 | Plant response rating, Ryegrass, Italian ([9]; 500 g ai/ha): 0 | Plant response rating, Barnyardgrass (Flood) [10]: 0 | Plant response rating, Rice (Flood) (rice (Oryza sativa)): 0 | Plant response rating, Blackgrass ([11]; 125 g ai/ha): 0 | Plant response rating, Blackgrass ([11]; 500 g ai/ha): 0 | Plant response rating, Ryegrass, Italian ([12]; 125 g ai/ha): 0 | Plant response rating, Ryegrass, Italian ([12]; 500 g ai/ha): 0 | Plant response rating, Wheat ([13]; 125 g ai/ha): 0 | Plant response rating, Wheat ([13]; 500 g ai/ha): 0 | Plant response rating, Sedge, Umbrella (Flood) [14]: 0 | Plant response rating, Ragweed ([15]; 125 g ai/ha): 0 | Plant response rating, Ragweed ([15]; 500 g ai/ha): 0 | Plant response rating, Foxtail, Giant ([16]; 125 g ai/ha): 0 | Plant response rating, Foxtail, Giant ([16]; 500 g ai/ha): 0 | Plant response rating, Foxtail, Giant ([17]; 125 g ai/ha): 0 | Plant response rating, Foxtail, Giant ([17]; 500 g ai/ha): 0 | Plant response rating, Corn (corn (Zea mays); 125 g ai/ha): 0 | Plant response rating, Corn (corn (Zea mays); 500 g ai/ha): 0 | Plant response rating, Barnyardgrass ([18]; 125 g ai/ha): 0 | Plant response rating, Barnyardgrass ([18]; 500 g ai/ha): 0

O=C1NCC(c2cccc(OCc3ccccc3)c2)C1C(=O)Nc1ccc(F)c(F)c1F (stereo not drawn) [Compound 66]
Plant response rating, Pigweed ([1]; 125 g ai/ha): 0 | Plant response rating, Pigweed ([1]; 500 g ai/ha): 0 | Plant response rating, Barnyardgrass ([2]; 125 g ai/ha): 0 | Plant response rating, Barnyardgrass ([2]; 500 g ai/ha): 0 | Plant response rating, Pigweed ([3]; 125 g ai/ha): 0 | Plant response rating, Pigweed ([3]; 500 g ai/ha): 0 | Plant response rating, Ragweed ([4]; 125 g ai/ha): 0 | Plant response rating, Ragweed ([4]; 500 g ai/ha): 0 | Plant response rating, Ducksalad (Flood) [5]: 0 | Plant response rating, Galium ([6]; 125 g ai/ha): 0 | Plant response rating, Galium ([6]; 500 g ai/ha): 0 | Plant response rating, Kochia (kochia (Kochia scoparia) [7]; 125 g ai/ha): 0 | Plant response rating, Kochia (kochia (Kochia scoparia) [7]; 500 g ai/ha): 0 | Plant response rating, Kochia (kochia (Kochia scoparia) [8]; 125 g ai/ha): 0 | Plant response rating, Kochia (kochia (Kochia scoparia) [8]; 500 g ai/ha): 0 | Plant response rating, Ryegrass, Italian ([9]; 125 g ai/ha): 0 | Plant response rating, Ryegrass, Italian ([9]; 500 g ai/ha): 0 | Plant response rating, Barnyardgrass (Flood) [10]: 0 | Plant response rating, Rice (Flood) (rice (Oryza sativa)): 0 | Plant response rating, Blackgrass ([11]; 125 g ai/ha): 0 | Plant response rating, Blackgrass ([11]; 500 g ai/ha): 0 | Plant response rating, Ryegrass, Italian ([12]; 125 g ai/ha): 0 | Plant response rating, Ryegrass, Italian ([12]; 500 g ai/ha): 0 | Plant response rating, Wheat ([13]; 125 g ai/ha): 0 | Plant response rating, Wheat ([13]; 500 g ai/ha): 0 | Plant response rating, Sedge, Umbrella (Flood) [14]: 0 | Plant response rating, Ragweed ([15]; 125 g ai/ha): 0 | Plant response rating, Ragweed ([15]; 500 g ai/ha): 0 | Plant response rating, Foxtail, Giant ([16]; 125 g ai/ha): 0 | Plant response rating, Foxtail, Giant ([16]; 500 g ai/ha): 0 | Plant response rating, Foxtail, Giant ([17]; 125 g ai/ha): 0 | Plant response rating, Foxtail, Giant ([17]; 500 g ai/ha): 0 | Plant response rating, Corn (corn (Zea mays); 125 g ai/ha): 0 | Plant response rating, Corn (corn (Zea mays); 500 g ai/ha): 0 | Plant response rating, Barnyardgrass ([18]; 125 g ai/ha): 0 | Plant response rating, Barnyardgrass ([18]; 500 g ai/ha): 0
